Our source for the IC50 values is PubChem BioAssay AID651974 (The Scripps Research Institute Molecular Screening Center, 2013).

Broadly, the IC50 is the concentration at which inhibition is half-maximal.

Calls of active or inactive are those of the source. The rule behind the calls is not given here.

The experiment is described as follows: GAL4-VP16 transactivation reporter inhibitors, late-stage follow-up, counter-screen for LRH-1 inverse agonist project, cell-based, luminescence, dose response (AID 651974). The settings on record: HEK293 cells transfected with Gal4-VP16 and pGL4.31 luciferase reporter. Background: Counterscreens check selectivity or assay interference.
`COc1ccc(NC(=O)CSc2nc(N)c(-c3ccccc3)c(=O)[nH]2)cc1`: the IC50 was > 35.9 µM (inactive).
As to `NC(=O)C1CCN(C(=O)COc2ccc3c4c(c(=O)oc3c2)CCCC4)CC1`, the IC50 is > 35.9 µM (inactive).
As to `Cc1cc(=O)oc2c(C)c(OCC(=O)NC3CC(C)(C)NC(C)(C)C3)ccc12`, the IC50 was > 35.9 µM (inactive).
Take `COc1ccc(-n2c(N)c(C(=O)NCc3cccnc3)sc2=S)cc1`: the IC50 was > 35.9 µM (inactive).
Turning to `CCOc1ccc(NC(=O)CSc2nncc(=O)n2N)cc1`, the IC50 is > 35.9 µM (inactive).
As for `COc1ccc(NS(=O)(=O)c2ccc(OCC(=O)N3CCN(C)CC3)cc2)cc1Cl`, the IC50 is > 35.9 µM (inactive).
For `CCOc1ccc(OCCC(=O)OCC(=O)Nc2ccc3c(c2)OCCO3)cc1`, the IC50 was > 35.9 µM (inactive).
As for `CCCc1cc(=O)oc2c(C)c(OCC(=O)NCCCn3ccnc3)ccc12`, the IC50 was > 35.9 µM (inactive).
For `COc1ccc(CCNC(=O)CSc2ccc(NC(C)=O)cc2)cc1OC`, the IC50 is > 35.9 µM (inactive).
Turning to `O=C(COc1ccc2c3c(c(=O)oc2c1)CCC3)NCc1ccncc1`, the IC50 is > 35.9 µM (inactive).
The value for `CCOc1ccc(NC(=O)CSc2nnc(C(C)C)n2CC)cc1` was > 35.9 µM (inactive); that for `CCCN(CC(=O)Nc1ccc(C(C)=O)cc1)CC(=O)Nc1ccccc1C` was > 35.9 µM (inactive).
In the case of `COc1ccc(CCNC(=O)CSc2nc3[nH]c(=O)cc(O)c3s2)cc1`, the IC50 was > 35.9 µM (inactive).
On to `O=C1CCCN2N=C(SCC(=O)Nc3ccc(Br)cc3)SC2=N1`, for which the IC50 is > 35.9 µM (inactive).
As to `CC(C)CC1(C)NC(=O)N(CC(=O)Nc2ccc3c(c2)OCCO3)C1=O` (stereo not given), the IC50 is > 35.9 µM (inactive).
Consider `CCc1cc(=O)oc2c(C)c(OCC(=O)NCCN3CCOCC3)ccc12`, for which the IC50 is > 35.9 µM (inactive).
In the case of `COc1ccc(CCNC(=O)COC(=O)C23CC4CC(CC(C4)C2)C3)cc1`, the IC50 is > 35.9 µM (inactive).
Regarding `Cc1ccc(NC(=O)CSc2sc3c(O)cc(=O)[nH]c3c2C#N)c(F)c1`, the IC50 was > 35.9 µM (inactive).
With `CC(=O)c1ccc(OC(C)C(=O)OCC(=O)NCCc2ccccc2)cc1` (stereo not given), the IC50 is > 35.9 µM (inactive).
For the molecule `Cc1ccc2cccc(OCC(=O)NCCC3=CCCCC3)c2n1`, the IC50 is > 35.9 µM (inactive).
For `CCOc1ccc(NC(=O)CSc2nccn(-c3ccc4c(c3)OCCO4)c2=O)cc1` the value was > 35.9 µM (inactive).
On to `O=c1[nH]c(Nc2ccc3c(c2)OCCO3)nnc1Cc1ccccc1`, for which the IC50 was > 35.9 µM (inactive).
The value for `CN1CCN(c2ccc(S(=O)(=O)N3CCCCC3)cc2NC(=O)COc2ccc([N+](=O)[O-])cc2)CC1` was > 35.9 µM (inactive).
For `CCOc1ccc(OCCN2C(=O)NC(Cc3c[nH]c4ccccc34)C2=O)cc1` (stereo not given) the value was > 35.9 µM (inactive); for `Cc1ccc(NC(=O)CSc2nc3[nH]c(=O)cc(O)c3s2)c(Br)c1`, > 35.9 µM (inactive).
With `COc1ccccc1Oc1nnnn1-c1ccc(C(N)=O)cc1`, the IC50 was > 35.9 µM (inactive).
For `COC(=O)c1ccc(NC(=O)CSc2ccc(-c3ccccn3)nn2)cc1`, the IC50 is > 35.9 µM (inactive).
Regarding `COc1ccc(NC(=O)CSc2sc3c(O)cc(=O)[nH]c3c2C#N)c(OC)c1`, the IC50 is > 35.9 µM (inactive).
Turning to `CCOc1ccc(NC(=O)COC(=O)c2ccc3c(c2)OCCO3)cc1`, the IC50 was > 35.9 µM (inactive).
The value for `Cc1ccc(NC(=O)COC(=O)C(NS(=O)(=O)c2ccc(Cl)cc2)C(C)O)cc1C` (stereo not given) was > 35.9 µM (inactive).
For the molecule `Cc1cc(Br)ccc1NC(=O)CN1C(=O)CCC1=O`, the IC50 was > 35.9 µM (inactive).
The value for `COc1ccc(NC(=O)CSc2ccc3c(c2)OCCO3)cc1` was > 35.9 µM (inactive); that for `Cc1cc(Br)ccc1NC(=O)CN1C(=O)C2CC=CCC2C1=O` (stereo not given) was > 35.9 µM (inactive).
On to `Cc1ccn2c(=O)nc(SCC(=O)Nc3ccc4c(c3)OCCO4)nc2c1`, for which the IC50 was > 35.9 µM (inactive).
For `O=C(CSc1nc(=O)n2cc(Cl)ccc2n1)Nc1ccc2c(c1)OCCO2`, the IC50 is > 35.9 µM (inactive).
As for `Cc1cccc(NC(=O)COC(=O)CN2C(=O)c3ccccc3C2=O)c1C`, the IC50 was > 35.9 µM (inactive).
As for `Cc1cc(C)c2sc(NC(=O)c3ccc([N+](=O)[O-])o3)nc2c1`, the IC50 is > 35.9 µM (inactive).
For `COCC(=O)NC1CCN(CC(=O)Nc2ccc(OC)cc2[N+](=O)[O-])CC1` the value was > 35.9 µM (inactive); for `Cc1ccc(NC(=O)COC(=O)C(NS(=O)(=O)c2ccc(Cl)cc2)C(C)O)c(Br)c1` (stereo not given), > 35.9 µM (inactive); for `COC(=O)c1ccc(NC(=O)CN2CCN(c3ccc(Cl)cc3)CC2)cc1`, > 35.9 µM (inactive).
As for `COc1ccc(CCNC(=O)CSc2nn3c(=O)c(C)nnc3s2)cc1OC`, the IC50 is > 35.9 µM (inactive).
The value for `CCCc1cc(=O)oc2c(C)c(OCC(=O)NCCN3CCOCC3)ccc12` was > 35.9 µM (inactive).
With `COc1ccc(NC(=O)CS(=O)(=O)c2ccc(C)cc2)c(OC)c1`, the IC50 was > 35.9 µM (inactive).
As to `O=C(Nc1ccc(Br)cn1)c1ccc([N+](=O)[O-])o1`, the IC50 is > 35.9 µM (inactive).
For the molecule `O=C(Nc1nc2c(Cl)cccc2s1)c1ccc([N+](=O)[O-])o1`, the IC50 is > 35.9 µM (inactive).
For `O=C(NCC1CCCO1)c1ccc(NC(=O)c2cccc([N+](=O)[O-])c2)cc1` (stereo not given), the IC50 was > 35.9 µM (inactive).
The value for `Cc1cc(OCC(=O)Nc2nccs2)c2c(C)cc(=O)oc2c1` was > 35.9 µM (inactive).
For `COc1ccc(CCNC(=O)COC(=O)c2cc(Cl)nc(Cl)c2)cc1` the value was > 35.9 µM (inactive).
The value for `Cc1cc(C)c2nc(NC(=O)c3ccc([N+](=O)[O-])o3)sc2c1` was > 35.9 µM (inactive); that for `O=C(COC(=O)c1ccc[n+]([O-])c1)Nc1ccc([N+](=O)[O-])cc1Cl` was > 35.9 µM (inactive).
For the molecule `COc1ccc(NC(=O)COC(=O)c2cc(S(=O)(=O)N3CCCC3)ccc2O)cc1`, the IC50 is > 35.9 µM (inactive).
Consider `COc1ccc(NC(=O)CN2C(=O)NC3(CCCC3)C2=O)cc1`, for which the IC50 is > 35.9 µM (inactive).
`CCOc1ccc(NC(=O)COC(=O)CC2CCCCC2)cc1`: the IC50 was > 35.9 µM (inactive).
For `O=C(COC(=O)c1ccc(Br)cc1)Nc1ccccc1Br` the value was > 35.9 µM (inactive); for `Cc1cc(Br)ccc1NC(=O)CSc1nnc(CN2CCOCC2)n1C`, > 35.9 µM (inactive); for `CCCc1cc(=O)oc2c(C)c(OCC(=O)NC3CC(C)(C)NC(C)(C)C3)ccc12`, > 35.9 µM (inactive).
Regarding `Cc1ccc(-c2csc(NC(=O)c3ccc([N+](=O)[O-])o3)n2)cc1`, the IC50 is > 35.9 µM (inactive).
Consider `CC(=O)Nc1ccc(NC(=O)CSc2ccc(-c3ccco3)nn2)cc1`, for which the IC50 is > 35.9 µM (inactive).
Take `COC(=O)c1ccc(NC(=O)CSc2nc3ncccc3[nH]2)cc1`: the IC50 was > 35.9 µM (inactive).
Take `CC(=O)Nc1ccc(N=c2cc([N+](=O)[O-])cc(Cl)n2O)cc1`: the IC50 is > 35.9 µM (inactive).
As to `CCCc1nnc(SCC(=O)Nc2ccc(C(=O)OCC)cc2)o1`, the IC50 was > 35.9 µM (inactive).
For `O=C(CSc1nnc(CNC(=O)c2ccccc2F)o1)Nc1ccc2c(c1)OCCO2` the value was > 35.9 µM (inactive).
In the case of `O=C(COC(=O)c1ccc(=O)n(Cc2ccccc2)n1)Nc1ccc2c(c1)OCCO2`, the IC50 was > 35.9 µM (inactive).
Regarding `COc1ccc(CCNC(=O)COC(=O)Cc2ccccc2[N+](=O)[O-])cc1`, the IC50 was > 35.9 µM (inactive).
For `CCn1c(SCC(=O)Nc2ccc(Cl)cc2)nnc1C1CC1` the value was > 35.9 µM (inactive).
